Literature values as cited in patent publication US20240252671A1, “NEODEGRADER-ANTI-CD33 ANTIBODY CONJUGATES” (priority 2021, published 2024).

Key:
AML-193 = settings: stated as known; cited from earlier work
Kasumi-6 = settings: stated as known; cited from earlier work

Mylotarg: a CD33-targeting ADC clinically approved for the treatment of AML
sensitivity of cell line to Mylotarg (AML-193): insensitive | sensitivity of cell line to Mylotarg (Kasumi-6): insensitive
